In ChEMBL document CHEMBL5506074, “Discovery and Optimization of Tetrahydroisoquinoline Derivatives To Enhance Lysosome Biogenesis as Preclinical Candidates for the Treatment of Alzheimer's Disease” (J Med Chem, 2024):
The source made the active and inactive calls. No cut-off for these calls is given here.

Legend:
[1] = Induction of TFEB nuclear translocation in human HeLa cells expressing EGFP at 10 uM measured at 3 hrs by fluorescence microscopic analysis; assay type: functional
[2] = Induction of TFEB nuclear translocation in human HeLa cells expressing EGFP at 10 uM measured at 6 hrs by fluorescence microscopic analysis; assay type: functional
[3] = Induction of TFEB nuclear translocation in human HeLa cells expressing EGFP at 30 uM measured at 3 hrs by fluorescence microscopic analysis; assay type: functional
[4] = Induction of TFEB nuclear translocation in human HeLa cells expressing EGFP at 30 uM measured at 6 hrs by fluorescence microscopic analysis; assay type: functional
HeLa [5] = assay: Induction of lysosome biogenesis in human HeLa cells assessed as increase in number of acidified lysosomes at 10 uM incubated for 24 hrs by LysiTracker red staining based flow cytometry analysis; assay type: functional, cell-based
[6] = AUC (0 to t) in ICR mouse at 5 mg/kg, iv measured upto 24 hrs by LC-MS/MS analysis; assay type: ADME, organism-based; conditions: ICR, in vivo
HeLa [7] = assay: Upregulation of LAMP1 mRNA expression in human HeLa cells at 10 uM incubated for 24 hrs by qRT-PCR analysis; assay type: functional, cell-based
HeLa [8] = assay: Upregulation of HEXA mRNA expression in human HeLa cells at 10 uM incubated for 24 hrs by qRT-PCR analysis; assay type: functional, cell-based
HeLa [9] = assay: Upregulation of CTSD mRNA expression in human HeLa cells at 10 uM incubated for 24 hrs by qRT-PCR analysis; assay type: functional, cell-based
HeLa [10] = assay: Upregulation of CTSF mRNA expression in human HeLa cells at 10 uM incubated for 24 hrs by qRT-PCR analysis; assay type: functional, cell-based
HeLa [11] = assay: Upregulation of LC3B mRNA expression in human HeLa cells at 10 uM incubated for 24 hrs by qRT-PCR analysis; assay type: functional, cell-based
HeLa [12] = assay: Upregulation of OPTN mRNA expression in human HeLa cells at 10 uM incubated for 24 hrs by qRT-PCR analysis; assay type: functional, cell-based
HeLa [13] = assay: Upregulation of p62 mRNA expression in human HeLa cells at 10 uM incubated for 24 hrs by qRT-PCR analysis; assay type: functional, cell-based
HeLa [14] = assay: Upregulation of […] mRNA expression in human HeLa cells at 10 uM incubated for 24 hrs by qRT-PCR analysis; assay type: functional, cell-based
HeLa [15] = assay: Upregulation of ATG2A mRNA expression in human HeLa cells at 10 uM incubated for 24 hrs by qRT-PCR analysis; assay type: functional, cell-based
HeLa [16] = assay: Upregulation of GLA mRNA expression in human HeLa cells at 10 uM incubated for 24 hrs by qRT-PCR analysis; assay type: functional, cell-based
HeLa [17] = assay: Upregulation of Atg16L1 mRNA expression in human HeLa cells at 10 uM incubated for 24 hrs by qRT-PCR analysis; assay type: functional, cell-based
HeLa [18] = assay: Upregulation of UVRAG mRNA expression in human HeLa cells at 10 uM incubated for 24 hrs by qRT-PCR analysis; assay type: functional, cell-based
HeLa [19] = assay: Upregulation of LAMP1 mRNA expression in TFEB knockout human HeLa cells at 10 uM incubated for 24 hrs by qRT-PCR analysis; assay type: functional, cell-based
HeLa [20] = assay: Upregulation of HEXA mRNA expression in TFEB knockout human HeLa cells at 10 uM incubated for 24 hrs by qRT-PCR analysis; assay type: functional, cell-based
HeLa [21] = assay: Upregulation of CTSD mRNA expression in TFEB knockout human HeLa cells at 10 uM incubated for 24 hrs by qRT-PCR analysis; assay type: functional, cell-based
HeLa [22] = assay: Upregulation of CTSF mRNA expression in TFEB knockout human HeLa cells at 10 uM incubated for 24 hrs by qRT-PCR analysis; assay type: functional, cell-based
HeLa [23] = assay: Upregulation of LC3B mRNA expression in TFEB knockout human HeLa cells at 10 uM incubated for 24 hrs by qRT-PCR analysis; assay type: functional, cell-based
HeLa [24] = assay: Upregulation of OPTN mRNA expression in TFEB knockout human HeLa cells at 10 uM incubated for 24 hrs by qRT-PCR analysis; assay type: functional, cell-based
HeLa [25] = assay: Upregulation of p62 mRNA expression in TFEB knockout human HeLa cells at 10 uM incubated for 24 hrs by qRT-PCR analysis; assay type: functional, cell-based
HeLa [26] = assay: Upregulation of […] mRNA expression in TFEB knockout human HeLa cells at 10 uM incubated for 24 hrs by qRT-PCR analysis; assay type: functional, cell-based
HeLa [27] = assay: Upregulation of ATG2A mRNA expression in TFEB knockout human HeLa cells at 10 uM incubated for 24 hrs by qRT-PCR analysis; assay type: functional, cell-based
HeLa [28] = assay: Upregulation of GLA mRNA expression in TFEB knockout human HeLa cells at 10 uM incubated for 24 hrs by qRT-PCR analysis; assay type: functional, cell-based
HeLa [29] = assay: Upregulation of Atg16L1 mRNA expression in TFEB knockout human HeLa cells at 10 uM incubated for 24 hrs by qRT-PCR analysis; assay type: functional, cell-based
HeLa [30] = assay: Upregulation of UVRAG mRNA expression in TFEB knockout human HeLa cells at 10 uM incubated for 24 hrs by qRT-PCR analysis; assay type: functional, cell-based
[31] = target: Cyclin-dependent kinase 9 (Homo sapiens) (UniProt P50750); assay: Inhibition of CDK9 in human SH-SY5Y cells assessed as decrease in Rpb1 phosphorylation at 10 uM incubated for 6 hrs by immunoblotting analysis; assay type: cell-based
HeLa [32] = assay: Cytotoxicity against human HeLa cells assessed as effect on cell viability at 10 uM incubated for 24 hrs; assay type: functional, cell-based
SH-SY5Y = assay: Cytotoxicity against human SH-SY5Y cells assessed as effect on cell viability at 10 uM incubated for 24 hrs; assay type: functional, cell-based
[33] = tested on: Primary neocortical neuron; assay: Cytotoxicity against mouse Primary neocortical neuron cells assessed as effect on cell viability at 10 uM incubated for 24 hrs; assay type: functional, cell-based
HeLa [34] = assay: Induction of cell cycle arrest in human HeLa cells assessed as effect on LAMP1 level at 10 uM incubated for 12 hrs by qRT-PCR analysis; assay type: functional, cell-based
HeLa [35] = assay: Induction of cell cycle arrest in human HeLa cells assessed as effect on CDK4 level at 10 uM incubated for 12 hrs by qRT-PCR analysis; assay type: functional, cell-based
HeLa [36] = assay: Induction of cell cycle arrest in human HeLa cells assessed as effect on CDK7 level at 10 uM incubated for 12 hrs by qRT-PCR analysis; assay type: functional, cell-based
HeLa [37] = assay: Induction of cell cycle arrest in human HeLa cells assessed as effect on p21 level at 10 uM incubated for 12 hrs by qRT-PCR analysis; assay type: functional, cell-based
[38] = Volume of distribution at steady state in ICR mouse measured upto 24 hrs by LC-MS/MS analysis; assay type: ADME; conditions: in vivo, read-out: Vdss
[39] = Tmax in ICR mouse at 20 mg/kg, po measured upto 24 hrs by LC-MS/MS analysis; assay type: ADME, organism-based; conditions: in vivo
[40] = Tmax in ICR mouse at 10 mg/kg, ip measured upto 24 hrs by LC-MS/MS analysis; assay type: ADME, organism-based; conditions: in vivo
[41] = Half life in ICR mouse at 20 mg/kg, po measured upto 24 hrs by LC-MS/MS analysis; assay type: ADME, organism-based; conditions: in vivo
[42] = Half life in ICR mouse at 10 mg/kg, ip measured upto 24 hrs by LC-MS/MS analysis; assay type: ADME, organism-based; conditions: in vivo
[43] = Cmax in ICR mouse at 20 mg/kg, po measured upto 24 hrs by LC-MS/MS analysis; assay type: ADME, organism-based; conditions: in vivo
[44] = Cmax in ICR mouse at 10 mg/kg, ip measured upto 24 hrs by LC-MS/MS analysis; assay type: ADME, organism-based; conditions: in vivo
[45] = AUC (0 to t) in ICR mouse at 20 mg/kg, po measured upto 24 hrs by LC-MS/MS analysis; assay type: ADME, organism-based; conditions: ICR, in vivo
[46] = AUC (0 to t) in ICR mouse at 10 mg/kg, ip measured upto 24 hrs by LC-MS/MS analysis; assay type: ADME, organism-based; conditions: in vivo
[47] = Clearance in ICR mouse at 5 mg/kg, iv measured upto 24 hrs by LC-MS/MS analysis; assay type: ADME, organism-based; conditions: in vivo
[48] = Bioavailability in ICR mouse at 5 mg/kg, ip measured upto 24 hrs by LC-MS/MS analysis; assay type: ADME, organism-based; conditions: in vivo
[49] = Oral bioavailability in ICR mouse at 20 mg/kg measured upto 24 hrs by LC-MS/MS analysis; assay type: ADME, organism-based; conditions: ICR, in vivo
[50] = Ratio of drug concentration in ICR mouse brain to plasma at 10 mg/kg, ip measured upto 24 hrs by LC-MS/MS analysis; assay type: ADME, organism-based; conditions: brain and plasma, read-out: BPR
[51] = Ratio of drug concentration in ICR mouse brain to plasma at 5 mg/kg, iv measured upto 24 hrs by LC-MS/MS analysis; assay type: ADME, organism-based; conditions: brain and plasma, read-out: BPR

Chain of Cyclin-dependent kinase 9 (Homo sapiens) (P50750 whole entry): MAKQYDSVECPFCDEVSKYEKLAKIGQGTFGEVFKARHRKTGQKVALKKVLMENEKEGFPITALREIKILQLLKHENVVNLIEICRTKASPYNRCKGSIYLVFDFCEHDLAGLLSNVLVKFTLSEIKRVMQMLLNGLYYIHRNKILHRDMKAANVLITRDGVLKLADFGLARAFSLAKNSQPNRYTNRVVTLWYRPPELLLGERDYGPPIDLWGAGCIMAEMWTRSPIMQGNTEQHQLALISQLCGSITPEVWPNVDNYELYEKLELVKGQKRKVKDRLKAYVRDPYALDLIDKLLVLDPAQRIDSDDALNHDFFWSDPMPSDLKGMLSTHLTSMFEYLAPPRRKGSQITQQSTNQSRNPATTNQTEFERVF

## CC(C)N1CCc2cc3c(cc2C1CCc1c[nH]c2ccccc12)OCO3 (stereo not drawn)
[1]
  Activity: 22%
[2]
  Activity: 33%
[3]
  Activity: 70%
[4]
  Activity: 75%
HeLa [5]
  Activity: Active

## COc1ccc2[nH]cc(CCC3c4cc(OC)c(OC)cc4CCN3CC3CCOCC3)c2c1 (stereo not drawn)
[1]
  Activity: 74%
[2]
  Activity: 76%
[3]
  Activity: 96%
[4]
  Activity: 98%
[6]
  AUC(0-t) at 24 h: 21.5 ng·h/mL
HeLa [5]
  Activity: Active
HeLa [7]
  Activity: Active
HeLa [8]
  Activity: Active
HeLa [9]
  Activity: Active
HeLa [10]
  Activity: Active
HeLa [11]
  Activity: Active
HeLa [12]
  Activity: Active
HeLa [13]
  Activity: Active
HeLa [14]
  Activity: Active
HeLa [15]
  Activity: Active
HeLa [16]
  Activity: Active
HeLa [17]
  Activity: Active
HeLa [18]
  Activity: Active
HeLa [19]
  Activity: Active
HeLa [20]
  Activity: Active
HeLa [21]
  Activity: Active
HeLa [22]
  Activity: Active
HeLa [23]
  Activity: Active
HeLa [24]
  Activity: Active
HeLa [25]
  Activity: Active
HeLa [26]
  Activity: Active
HeLa [27]
  Activity: Active
HeLa [28]
  Activity: Active
HeLa [29]
  Activity: Active
HeLa [30]
  Activity: Active
[31]
  inhibition: Active
HeLa [32]
  Activity: Active
SH-SY5Y
  Activity: Active
[33]
  Activity: Active
HeLa [34]
  Activity: inactive
HeLa [35]
  Activity: inactive
HeLa [36]
  Activity: inactive
HeLa [37]
  Activity: inactive
[38]
  Vd: 97.5 L/kg

## COc1cc2c(cc1OC)C(CCc1c[nH]c3ccccc13)N(CC1CCOCC1)CC2 (stereo not drawn)
[1]
  Activity: 27%
[2]
  Activity: 47%
[3]
  Activity: 85%
[4]
  Activity: 85%
[39]
  Tmax: 25.2 min
[40]
  Tmax: 10.8 min
[41]
  half-life: 216 min
[42]
  half-life: 58.2 min
[43]
  Cmax: 9.14 ng/mL
[44]
  Cmax: 620 ng/mL
[45]
  AUC(0-t) at 24 h: 16.3 ng·h/mL
[46]
  AUC(0-t) at 24 h: 609 ng·h/mL
[6]
  AUC(0-t) at 24 h: 604 ng·h/mL
[47]
  clearance: 140 mL/min/kg
[48]
  bioavailability: 50.4%
[49]
  bioavailability: 0.67%
[50]
  Kp at 24 h: 1.9
[51]
  Kp at 24 h: 2.2
HeLa [5]
  Activity: Active
HeLa [7]
  Activity: Active
HeLa [8]
  Activity: Active
HeLa [9]
  Activity: Active
HeLa [10]
  Activity: Active
HeLa [11]
  Activity: Active
HeLa [12]
  Activity: Active
HeLa [13]
  Activity: Active
HeLa [14]
  Activity: Active
HeLa [15]
  Activity: Active
HeLa [16]
  Activity: Active
HeLa [17]
  Activity: Active
HeLa [18]
  Activity: Active
HeLa [19]
  Activity: Active
HeLa [20]
  Activity: Active
HeLa [21]
  Activity: Active
HeLa [22]
  Activity: Active
HeLa [23]
  Activity: Active
HeLa [24]
  Activity: Active
HeLa [25]
  Activity: Active
HeLa [26]
  Activity: Active
HeLa [27]
  Activity: Active
HeLa [28]
  Activity: Active
HeLa [29]
  Activity: Active
HeLa [30]
  Activity: Active
[38]
  Vd: 8.66 L/kg
